As a reminder, the Ki is the equilibrium dissociation constant of an inhibitor or competing ligand from its target. Higher therefore signals weaker binding.

The target of this assay is T1, Fatty-acid amide hydrolase 1 [30-579] (Rattus norvegicus, UniProt P97612).
T1 construct: 30-579
T1 sequence (P97612 whole entry): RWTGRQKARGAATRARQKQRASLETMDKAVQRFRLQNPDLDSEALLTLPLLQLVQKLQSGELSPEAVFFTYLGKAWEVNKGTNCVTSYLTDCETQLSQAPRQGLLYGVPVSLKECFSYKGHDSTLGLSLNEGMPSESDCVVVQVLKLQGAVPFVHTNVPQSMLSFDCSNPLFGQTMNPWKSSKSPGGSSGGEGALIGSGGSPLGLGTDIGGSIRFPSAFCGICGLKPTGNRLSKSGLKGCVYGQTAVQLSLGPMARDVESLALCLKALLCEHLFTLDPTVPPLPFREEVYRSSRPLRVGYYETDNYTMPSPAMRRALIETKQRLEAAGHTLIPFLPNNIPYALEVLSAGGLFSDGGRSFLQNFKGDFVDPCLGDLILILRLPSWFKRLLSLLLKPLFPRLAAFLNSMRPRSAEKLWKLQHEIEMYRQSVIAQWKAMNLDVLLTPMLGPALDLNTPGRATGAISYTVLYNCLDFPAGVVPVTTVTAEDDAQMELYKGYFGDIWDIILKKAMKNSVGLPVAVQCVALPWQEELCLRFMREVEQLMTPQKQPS
As to the kind of experiment: Enzyme-coupled Assay. The text has this:
Enzyme-coupled assay using oleamide as substrate where stoichiometic quantites of NAD are formed upon the generation of ammonia from oleamide by FAAH hydrolysis.

Compound `O=C(Nc1cccnc1)N1CCC(Cc2cccc(Oc3ccc(C(F)(F)F)cn3)c2)CC1` [PF-3845, 10] displayed a Ki of 230 nM.

The values above are taken from BindingDB's records for doi:10.1016/j.chembiol.2009.02.013 (Pfizer, 2009).
